From ChEMBL document CHEMBL4602676, “Discovery and Development of 3-(6-Chloropyridine-3-yloxymethyl)-2-azabicyclo[3.1.0]hexane Hydrochloride (SUVN-911): A Novel, Potent, Selective, and Orally Active Neuronal Nicotinic Acetylcholine α4β2 Receptor Antagonist for the Treatment of Depression” (J Med Chem, 2020)
pKi: −log10 of the molar value.

How the values were obtained:
[1] = target: Neuronal acetylcholine receptor; alpha3/beta4 (Homo sapiens, UniProt P30926+P32297); assay: Displacement of [3H]epibatidine from human alpha3beta4 nAChR expressed in IMR32 cell membrane by microbeta scintillation counting method; assay type: cell membranes, IMR-32
Neuronal acetylcholine receptor; alpha3/beta4, sequence (P30926 whole entry): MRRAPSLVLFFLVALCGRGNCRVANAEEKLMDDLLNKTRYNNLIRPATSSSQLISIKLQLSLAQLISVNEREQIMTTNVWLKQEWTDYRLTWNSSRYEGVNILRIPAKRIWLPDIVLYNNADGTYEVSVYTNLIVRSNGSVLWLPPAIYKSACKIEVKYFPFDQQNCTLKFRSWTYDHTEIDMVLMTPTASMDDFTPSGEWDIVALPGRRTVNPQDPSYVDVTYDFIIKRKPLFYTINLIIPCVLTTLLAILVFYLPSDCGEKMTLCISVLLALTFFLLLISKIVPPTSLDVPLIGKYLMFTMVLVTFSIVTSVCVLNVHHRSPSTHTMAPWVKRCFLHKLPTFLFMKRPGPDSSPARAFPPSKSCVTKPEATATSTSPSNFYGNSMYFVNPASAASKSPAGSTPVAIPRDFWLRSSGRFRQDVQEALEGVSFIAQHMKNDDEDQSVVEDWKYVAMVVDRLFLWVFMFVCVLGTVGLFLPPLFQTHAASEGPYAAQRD
Neuronal acetylcholine receptor; alpha3/beta4, sequence (P32297 whole entry): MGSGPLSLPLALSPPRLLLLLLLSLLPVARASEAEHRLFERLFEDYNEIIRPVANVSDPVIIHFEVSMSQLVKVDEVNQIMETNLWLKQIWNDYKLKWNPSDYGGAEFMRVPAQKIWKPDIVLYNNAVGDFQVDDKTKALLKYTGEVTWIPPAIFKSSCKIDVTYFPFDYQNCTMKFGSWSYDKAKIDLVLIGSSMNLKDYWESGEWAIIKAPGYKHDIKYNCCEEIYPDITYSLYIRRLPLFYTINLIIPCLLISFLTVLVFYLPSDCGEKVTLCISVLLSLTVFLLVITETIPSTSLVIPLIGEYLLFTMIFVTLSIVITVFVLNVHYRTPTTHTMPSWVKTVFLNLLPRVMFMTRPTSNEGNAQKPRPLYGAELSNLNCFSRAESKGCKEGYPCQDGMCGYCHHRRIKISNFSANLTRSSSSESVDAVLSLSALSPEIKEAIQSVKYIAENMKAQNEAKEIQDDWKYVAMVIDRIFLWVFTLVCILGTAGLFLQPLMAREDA

[2] = Oral bioavailability in Wistar rat at 10 ml/kg measured upto 24 hrs by LC-MS/MS analysis; assay type: ADME, organism-based; settings: in vivo
[3] = AUC in Wistar rat at 10 ml/kg, po or 2 ml/kg, iv measured upto 24 hrs by LC-MS/MS analysis; assay type: ADME, organism-based; settings: in vivo
[4] = Half life in Wistar rat at 10 ml/kg, po or 2 ml/kg, iv measured upto 24 hrs by LC-MS/MS analysis; assay type: ADME, organism-based; settings: in vivo
[5] = Oral bioavailability in Beagle dog at 3 mg/kg by LC-MS/MS analysis; assay type: ADME, organism-based, Canis lupus familiaris; settings: in vivo
[6] = Volume of distribution in Beagle dog at 1 mg/kg, iv by LC-MS/MS analysis; assay type: ADME, organism-based, Canis lupus familiaris; settings: in vivo
[7] = Ratio of drug level in brain to plasma in Wistar rat at 10 ml/kg, po or 2 ml/kg, iv measured upto 24 hrs by LC-MS/MS analysis; assay type: ADME, organism-based; settings: brain and plasma, read-out: BPR
[8] = Clearance in Beagle dog at 1 mg/kg, iv by LC-MS/MS analysis; assay type: ADME, organism-based, Canis lupus familiaris; settings: in vivo
[9] = AUC (0 to t) in Beagle dog at 3 mg/kg, po by LC-MS/MS analysis; assay type: ADME, organism-based, Canis lupus familiaris; settings: in vivo
[10] = Protein binding in dog plasma assessed as unbound fraction at […] incubated for 6 hrs by LC-MS/MS analysis; assay type: ADME, cell-free, Canis lupus familiaris
[11] = Apparent permeability in human Caco2 cells; assay type: ADME, cell-based; settings: caco-2
[12] = Protein binding in rat plasma assessed as unbound fraction at […] incubated for 6 hrs by LC-MS/MS analysis; assay type: ADME, cell-free
[13] = Genotoxicity in Salmonella typhimurium TA98 in absence of metabolic activation; assay type: toxicity; settings: salmonella enterica subsp. enterica serovar typhimurium
[14] = target: T1, Cytochrome P450 2B6 (Homo sapiens, UniProt P20813); assay: Induction of CYP2B6 (unknown origin); assay type: ADME
T1 sequence (P20813 whole entry): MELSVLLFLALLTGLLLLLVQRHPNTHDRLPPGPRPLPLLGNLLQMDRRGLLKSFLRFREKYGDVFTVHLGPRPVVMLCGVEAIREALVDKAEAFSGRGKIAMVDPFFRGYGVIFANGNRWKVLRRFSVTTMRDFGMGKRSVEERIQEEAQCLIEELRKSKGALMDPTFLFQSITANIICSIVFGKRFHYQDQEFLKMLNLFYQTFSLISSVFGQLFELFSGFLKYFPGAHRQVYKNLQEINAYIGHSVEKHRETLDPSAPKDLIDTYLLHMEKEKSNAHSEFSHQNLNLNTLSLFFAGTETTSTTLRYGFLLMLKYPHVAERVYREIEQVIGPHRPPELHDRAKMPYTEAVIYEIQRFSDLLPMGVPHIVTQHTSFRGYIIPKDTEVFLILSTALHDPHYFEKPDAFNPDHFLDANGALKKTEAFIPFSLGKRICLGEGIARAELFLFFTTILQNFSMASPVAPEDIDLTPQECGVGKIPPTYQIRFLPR

[15] = target: T2, Organic anion transporter 3 (Homo sapiens, UniProt Q8TCC7); assay: Inhibition of OAT3 (unknown origin)
T2 sequence (Q8TCC7 whole entry): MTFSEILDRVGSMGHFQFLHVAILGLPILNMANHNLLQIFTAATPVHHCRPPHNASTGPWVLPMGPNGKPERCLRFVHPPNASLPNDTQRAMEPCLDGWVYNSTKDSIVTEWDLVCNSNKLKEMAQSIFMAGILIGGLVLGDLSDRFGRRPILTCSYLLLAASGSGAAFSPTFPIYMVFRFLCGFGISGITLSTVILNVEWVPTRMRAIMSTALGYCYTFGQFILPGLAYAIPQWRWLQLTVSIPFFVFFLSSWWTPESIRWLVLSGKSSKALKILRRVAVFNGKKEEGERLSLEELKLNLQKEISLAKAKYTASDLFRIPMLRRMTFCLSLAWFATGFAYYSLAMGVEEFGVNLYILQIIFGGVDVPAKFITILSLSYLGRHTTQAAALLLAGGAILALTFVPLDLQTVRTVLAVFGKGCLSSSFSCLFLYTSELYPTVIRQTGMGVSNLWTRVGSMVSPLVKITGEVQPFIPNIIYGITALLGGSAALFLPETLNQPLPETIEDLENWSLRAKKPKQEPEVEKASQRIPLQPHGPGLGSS

[16] = target: T3, Solute carrier organic anion transporter family member 1B3 (Homo sapiens, UniProt Q9NPD5); assay: Inhibition of OATP1B3 (unknown origin)
T3 sequence (Q9NPD5 whole entry): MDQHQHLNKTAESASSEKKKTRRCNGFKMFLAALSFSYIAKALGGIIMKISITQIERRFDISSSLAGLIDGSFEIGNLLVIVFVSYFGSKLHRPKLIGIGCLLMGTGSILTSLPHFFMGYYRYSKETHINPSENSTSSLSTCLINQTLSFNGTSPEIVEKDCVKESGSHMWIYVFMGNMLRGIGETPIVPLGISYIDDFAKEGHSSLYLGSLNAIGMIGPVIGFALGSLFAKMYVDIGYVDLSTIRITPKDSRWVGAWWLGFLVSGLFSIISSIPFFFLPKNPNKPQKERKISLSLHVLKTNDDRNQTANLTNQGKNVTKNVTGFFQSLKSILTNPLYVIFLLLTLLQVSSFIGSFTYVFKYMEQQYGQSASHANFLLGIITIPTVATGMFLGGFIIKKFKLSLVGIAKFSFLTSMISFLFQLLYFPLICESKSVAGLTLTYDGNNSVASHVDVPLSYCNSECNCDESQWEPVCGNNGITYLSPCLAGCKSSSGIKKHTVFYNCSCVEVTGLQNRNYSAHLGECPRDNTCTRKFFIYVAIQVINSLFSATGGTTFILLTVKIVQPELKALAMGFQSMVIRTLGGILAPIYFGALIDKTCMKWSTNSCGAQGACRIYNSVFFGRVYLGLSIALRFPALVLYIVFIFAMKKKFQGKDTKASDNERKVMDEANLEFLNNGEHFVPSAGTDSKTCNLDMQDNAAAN

Cl.Clc1ccc(OC[C@@H]2C[C@H]3C[C@H]3N2)cn1
pKi [1]: < 5.00
bioavailability [2]: 66%
AUC at 24 h [3]: 3510 ng·h/mL
half-life [4]: 3.34 h
bioavailability [5]: 83%
Vd [6]: 1.3 L/kg
Kp at 24 h [7]: 2.34
clearance [8]: 10 mL/min/kg
AUC(0-t) [9]: 4350 ng·h/mL
fraction unbound at 6 h [10]: 0.31
Papp [11]: 68.8 ×10⁻⁶ cm/s
fraction unbound at 6 h [12]: 0.31
Activity [13]: Non-Toxic
Activity [14]: Not Active
inhibition (INH) [15]: Not Active
inhibition (INH) [16]: Not Active
